Literature values as cited in US11654140B2, “Treatment of ocular inflammatory diseases using laquinimod” (Active Biotech AB, priority 2012, dated 2023).

Test system: patients with a history of uveitis
Conditions: patients with a history of uveitis (Sergott, 2011); cited from earlier work

SMILES: CCCCCCCCc1ccc(CCC(N)(CO)CO)cc1 [fingolimod]
- risk of macular edema: known to pose a risk of macular edema
